Assay results published in patent US20060030611A1, “Enoximone sulfoxide enantiomers and their use in the treatment of PDE-III mediated diseases” (Myogen, Inc., priority 2004, published 2006).
Where two headings read alike, the source gives them in different places.

What was measured:
[1] = cited from earlier work; for average steady-state plasma concentration: oral
[2] = test system: trabeculae from the right ventricular free wall of explanted human hearts; experiment: Peak contractile force of isolated human right ventricular trabeculae in muscle bath; assay type: cell-based; conditions: 37° C., 1.0 Hz field stimulation, increasing concentrations
Method: Explanted human hearts were obtained from transplant recipients (n=7) and from nonfailing donor hearts (n=1). After excision, hearts were placed immediately into ice cold Tyrode's solution and aerated with 95% O2 and 5% CO2. Trabeculae between 1-3 mm in width and 7-10 mm in length were excised from the right ventricular free wall. Subsequently trabeculae were mounted in a multi-chamber muscle bath in oxygenated Tyrode's solution at 37° C. The trabeculae were placed under 1 gram of resting tension and a field stimulation of 1.0 Hz. […] Peak contractile forces were recorded at 10 minute intervals for a total of 1½ hours. Following experimentation, trabeculae were frozen in liquid N2.

men who suffer from ED = conditions: ED of psychogenic or organic etiology, clinical studies; cited from earlier work
PDE-III = conditions: cited from earlier work
[3] = molecular target: T1, PDE-III isolated from human platelets (Homo sapiens, UniProt Q14432); experiment: PDE-III inhibition, [3H]cAMP substrate; assay type: biochemical; conditions: triplicate at three concentrations over log scale, semi-quantitative
T1 construct: PDE-III isolated from human platelets; from tissue; host or cells: human platelets
T1 sequence (Q14432 whole entry): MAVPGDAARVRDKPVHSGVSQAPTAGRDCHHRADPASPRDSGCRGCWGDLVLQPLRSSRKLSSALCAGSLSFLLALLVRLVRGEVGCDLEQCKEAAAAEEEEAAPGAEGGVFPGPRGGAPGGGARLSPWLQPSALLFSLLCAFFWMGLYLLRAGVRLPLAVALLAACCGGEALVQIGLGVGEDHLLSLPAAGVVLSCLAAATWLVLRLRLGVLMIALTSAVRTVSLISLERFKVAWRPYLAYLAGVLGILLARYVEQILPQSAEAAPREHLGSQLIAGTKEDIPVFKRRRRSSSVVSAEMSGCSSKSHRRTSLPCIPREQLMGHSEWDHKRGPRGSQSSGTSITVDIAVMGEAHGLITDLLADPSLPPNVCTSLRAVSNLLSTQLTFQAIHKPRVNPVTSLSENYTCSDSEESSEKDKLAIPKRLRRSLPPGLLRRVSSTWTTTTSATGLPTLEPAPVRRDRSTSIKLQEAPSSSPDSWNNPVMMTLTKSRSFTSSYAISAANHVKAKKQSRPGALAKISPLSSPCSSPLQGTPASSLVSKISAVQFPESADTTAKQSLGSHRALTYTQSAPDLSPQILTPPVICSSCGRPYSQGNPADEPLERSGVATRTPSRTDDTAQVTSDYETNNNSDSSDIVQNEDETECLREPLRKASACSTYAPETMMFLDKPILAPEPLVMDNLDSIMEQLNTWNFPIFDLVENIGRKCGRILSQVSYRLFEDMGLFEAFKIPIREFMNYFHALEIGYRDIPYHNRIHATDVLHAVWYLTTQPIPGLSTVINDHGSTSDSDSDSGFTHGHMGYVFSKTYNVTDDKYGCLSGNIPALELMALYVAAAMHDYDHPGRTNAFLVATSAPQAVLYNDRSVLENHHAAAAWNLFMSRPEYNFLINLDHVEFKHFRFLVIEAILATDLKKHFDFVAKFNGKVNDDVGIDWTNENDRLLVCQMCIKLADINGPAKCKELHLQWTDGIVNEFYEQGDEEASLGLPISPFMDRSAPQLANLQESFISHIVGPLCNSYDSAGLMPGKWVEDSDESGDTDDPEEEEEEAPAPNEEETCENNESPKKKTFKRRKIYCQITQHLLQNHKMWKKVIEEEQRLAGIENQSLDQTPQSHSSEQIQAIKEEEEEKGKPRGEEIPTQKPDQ
Method: Enoximone Sulfoxide enantiomer was tested for its ability to inhibit the action of PDE-III isolated from human platelets. The substrate was [^3H]cAMP+cAMP, which is converted by PDE-III to […] and then […] can be quantified. Assays were done in triplicate at three different concentrations over log scale, allowing semi-quantitative measurement of IC50.

For `CSc1ccc(C(=O)c2[nH]c(=O)[nH]c2C)cc1` [Enoximone, 1,3-Dihydro-4-methyl-5-[4-(methylthio)benzoyl]-2H-imidazol-2-one], the “average steady-state plasma concentration” value ([1]; 50 mg every 8 hours) is given as 115 ± 40 ng/mL, the “average steady-state plasma concentration” value ([1]; 100 mg every 8 hours) is given as 190 ± 78 ng/mL and the mean clearance ([1]; patients with cardiac failure) is given as “about 10 ml/min/kg”. The Bioavailability ([1]; single oral dose of 3 mg/kg) was “about 55%”.

For `Cc1[nH]c(=O)[nH]c1C(=O)c1ccc([S+](C)[O-])cc1.O` (stereo not shown) [Sulfoxide Metabolite 27996, 1,3-Dihydro-4-methyl-5-[(4-methylsulfinyl)-benzoyl]-2H-imidazol-2-one hydrate], the “peak contractile force (net, T=0 baseline subtracted)” value (“peak contractile force” for short) [2] was 175 mg of tension.

For `CCCc1nn(C)c2c(=O)[nH]c(-c3cc(S(=O)(=O)N4CCN(C)CC4)ccc3OCC)nc12` [sildenafil, 5-[2-ethoxy-5-(4-methylpiperazin-1-ylsulphonyl)phenyl]-1-methyl-3-n-propyl-6,7-dihydro-1H-pyrazolo[4,3-d]pyrimidin-7-one], the “men with improved sexual function” value (men who suffer from ED) is given as “about 70%” and the “inhibition of PDE-III” value (PDE-III) is given as “negligible inhibition”.

In the case of `Cc1[nH]c(=O)[nH]c1C(=O)c1ccc([S@@+](C)[O-])cc1` [(R)-(+)-enantiomer of enoximone sulfoxide, 1,3-Dihydro-4-methyl-5-[(4-methylsulfinyl)-benzoyl]-2H-imidazol-2-one hydrate], the “peak contractile force” value [2] is reported as 550 mg of tension and the IC50 [3] is reported as 107 µM.

For `CC(C)NCC(O)c1ccc(O)c(O)c1` (stereo not shown) [Isoproterenol], the “peak contractile force” value [2] was > 1000 mg of tension.
